The values below are quoted from earlier work in patent publication US6458974B1, “Synthesis of β-lapachone and its intermediates” (Cyclis Pharmaceuticals, Inc., priority 2001, dated 2002).

One data set concerns human cancer cell lines. Particulars: single agent, concentrations typically in this range, read-out: antineoplastic activity (IC50).
The subject of data set [1] is normal fresh or proliferating human PBMC.

A word on the IC50: it is the concentration at which inhibition is half-maximal. For `CC1(C)CCC2=C(O1)c1ccccc1C(=O)C2=O` [β-lapachone, 3,4-dihydro-2,2-dimethyl-2H-naphtho[1,2-b]pyran-5,6-dione], the IC50 in the data set with human cancer cell lines is 1 to 10 µM. Moreover, the cytotoxic effects entry in data set [1] was “No cytotoxic effects”.
